Source: paper PMC9610943, “Truncated Pleurocidin Derivative with High Pepsin Hydrolysis Resistance to Combat Multidrug-Resistant Pathogens” (Pharmaceutics, 2022)
Where no end group is shown, it is not given here.

Experiments:
E. coli B2 = format: cell-based
Description: (§1) The MICs of all drugs were determined by micro-broth dilution method according to CLSI 2018 guidelines. Briefly, a single colony of the bacterial strain was transferred to 1 mL of Mueller Hilton broth (MHB) and overnight at 37 °C and then 10 μL were cultured in a new 1 mL medium for 4 to 6 h, and then the bacterial culture at the logarithmic phase was diluted to 1 × 10^6 CFUs/mL. The assay was performed by adding 100 μL of each peptide solution at various concentrations (0.25 to 128 μg/mL) and 100 μL of diluted bacterial culture to different wells of a 96-well microtiter plate (Corning, NY, USA). After incubation at 37 °C for 16 to 18 h and then read its MIC value. MIC value is defined as the lowest drug concentration without visible bacteria.
(§2) Then, the antibacterial activity of the peptides affected by different temperatures and pH were determined according to the determination steps of MICs test.
(§3) In MHB medium, Na^+, K^+, Mg^2+ and Ca^2+ with the final concentrations of 10 mM, fetal bovine serum, plasma or DMEM medium (Hyclone, Logan, UT, USA) with the final concentrations of 10% was added, and then MIC values were measured to evaluate the effects of different cations, serum and plasma on the antibacterial activity of peptides.
(§4) The peptide was incubated with protease (pepsin, trypsin and papain) (Solarbio, Beijing, China) with a final concentration of 1 mg/mL at 37 °C for 1 h, then the mixture of peptide and protease was heated at 100 °C for 30 min, then centrifuged at 13,000× g for 30 min, and the supernatant was taken for MIC determination.

MRSA T144 [1] = format: cell-based, Staphylococcus aureus
Description: as §1, §2, §3, §4

MRSA T144 [2] = assay: microbe, parasite or virus in culture; format: cell-based, Staphylococcus aureus; settings: T144
Description: (§5) S. aureus ATCC 29213, E. coli ATCC 25922, S. enteritidis ATCC 13076 and A. baumannii ATCC 19609 were obtained from the American Type Culture Collection (ATCC). The remaining strains used in the experiment were all preserved strains in our laboratory. All strains were cultured in nutrient broth overnight to the logarithmic phase at 37 °C prior to each experiment.
as §1

MRSA 1530 = assay: microbe, parasite or virus in culture; format: cell-based, Staphylococcus aureus; settings: 1530
Description: as §5, §1

S. aureus G16 (RIF^R) = assay: microbe, parasite or virus in culture; format: cell-based; settings: S. aureus G16 (RIF^R); micro-broth dilution CLSI 2018, MHB, 37 °C, 16 to 18 h
Description: as §5, §1

E. coli 1F28 (tet(X4)) = assay: microbe, parasite or virus in culture; format: cell-based; settings: 1F28 (tet(X4))
Description: as §5, §1

E. coli CP131 (mcr-3) = assay: microbe, parasite or virus in culture; format: cell-based; settings: CP131 (mcr-3)
Description: as §5, §1

E. coli ATCC 25922 = assay: microbe, parasite or virus in culture; format: cell-based; settings: ATCC 25922
Description: as §5, §1

E. coli G6 (blaNDM-5) = assay: microbe, parasite or virus in culture; format: cell-based; settings: G6 (blaNDM-5)
Description: as §5, §1

[3] = system: P. aeruginosa (VIM + tmexCD1-torJ1); assay: microbe, parasite or virus in culture; format: cell-based; settings: VIM + tmexCD1-torJ1
Description: as §5, §1

[4] = system: E. coli B2 (blaNDM-5 + mcr-1); assay: microbe, parasite or virus in culture; format: cell-based; settings: B2 (blaNDM-5 + mcr-1)
Description: as §5, §1

A. baumannii ATCC 19609 = assay: microbe, parasite or virus in culture; format: cell-based; settings: ATCC 19609
Description: as §5, §1

E. coli B3-1 (tet(X4)) = assay: microbe, parasite or virus in culture; format: cell-based; settings: B3-1 (tet(X4))
Description: as §5, §1

E. coli C3 (blaNDM-1) = assay: microbe, parasite or virus in culture; format: cell-based; settings: C3 (blaNDM-1)
Description: as §5, §1

E. coli G92 (mcr-1) = assay: microbe, parasite or virus in culture; format: cell-based; settings: G92 (mcr-1)
Description: as §5, §1

[5] = system: S. aureus 215 (cfr + LZD^R); assay: microbe, parasite or virus in culture; format: cell-based; settings: S. aureus 215 (cfr + LZD^R); micro-broth dilution CLSI 2018, MHB, 37 °C, 16 to 18 h
Description: as §5, §1

[6] = system: E. faecalis A4 (VRE, VanA); assay: microbe, parasite or virus in culture; format: cell-based; settings: A4 (VRE, VanA)
Description: as §5, §1

[7] = system: S. enteritidis ATCC 13076; assay: microbe, parasite or virus in culture; format: cell-based; settings: ATCC 13076
Description: as §5, §1

S. aureus ATCC 29213 = assay: microbe, parasite or virus in culture; format: cell-based; settings: ATCC 29213
Description: as §5, §1

P. aeruginosa PA14 = assay: microbe, parasite or virus in culture; format: cell-based; settings: PA14
Description: as §5, §1

[8] = system: P. cibarius HNCF44W (blaNDM-1+ tet(X6)); assay: organism not typed; format: cell-based
Description: as §5, §1

With GWKSFFKKWKHVWK [GK-2] the “MIC after treatment at 121 °C” value (E. coli B2; B2) was 2 µg/mL, the “MIC in DMEM (10%)” value (E. coli B2; B2) was 4 µg/mL and the “MIC in Plasma (10%)” value (E. coli B2; B2) was 0.5 µg/mL. The “MIC in Serum (10%)” value (E. coli B2; B2) was 4 µg/mL, the “MIC in presence of Ca^2+” value (E. coli B2; B2) was >128 µg/mL and the “MIC in presence of K^+” value (E. coli B2; B2) was 2 µg/mL. The “MIC in presence of Mg^2+” value (E. coli B2; B2) was 32 µg/mL, the “MIC in presence of Na^+” value (E. coli B2; B2) was 2 µg/mL and the “MIC, Control” value (E. coli B2; B2) was 2 µg/mL. The “MIC after Papain treatment” value (E. coli B2; B2, 1 h) was >128 µg/mL, the “MIC after Pepsin treatment” value (E. coli B2; B2, 1 h) was 128 µg/mL and the “MIC after Trypsin treatment” value (E. coli B2; B2, 1 h) was >128 µg/mL. The “MIC after treatment at 40 °C” value (E. coli B2; B2, 1 h) was 2 µg/mL, the “MIC after treatment at 60 °C” value (E. coli B2; B2, 1 h) was 4 µg/mL and the “MIC after treatment at 80 °C” value (E. coli B2; B2, 1 h) was 2 µg/mL. The “MIC after treatment at 100 °C” value (E. coli B2; B2, 1 h) was 2 µg/mL, the “MIC after treatment at pH 2” value (E. coli B2; B2, 1 h, pH 2) was 2 µg/mL and the “MIC after treatment at pH 4” value (E. coli B2; B2, 1 h, pH 4) was 4 µg/mL. For the same sequence, the “MIC after treatment at pH 6” value (E. coli B2; B2, 1 h, pH 6) was 2 µg/mL, the “MIC after treatment at pH 8” value (E. coli B2; B2, 1 h, pH 8) was 2 µg/mL and the “MIC after treatment at pH 10” value (E. coli B2; B2, 1 h, pH 10) was 2 µg/mL. For the same sequence, the “MIC after treatment at pH 12” value (E. coli B2; B2, 1 h, pH 12) was 2 µg/mL, the “MIC after treatment at 121 °C” value (MRSA T144 [1]; T144) was 4 µg/mL and the “MIC in DMEM (10%)” value (MRSA T144 [1]; T144) was 4 µg/mL. For the same sequence, the “MIC in Plasma (10%)” value (MRSA T144 [1]; T144) was 4 µg/mL, the “MIC in Serum (10%)” value (MRSA T144 [1]; T144) was 8 µg/mL and the “MIC in presence of Ca^2+” value (MRSA T144 [1]; T144) was >128 µg/mL. For the same sequence, the “MIC in presence of K^+” value (MRSA T144 [1]; T144) was 4 µg/mL, the “MIC in presence of Mg^2+” value (MRSA T144 [1]; T144) was 4 µg/mL and the “MIC in presence of Na^+” value (MRSA T144 [1]; T144) was 2 µg/mL. For the same sequence, the “MIC, Control” value (MRSA T144 [1]; T144) was 8 µg/mL, the “MIC after Papain treatment” value (MRSA T144 [1]; T144, 1 h) was >128 µg/mL and the “MIC after Pepsin treatment” value (MRSA T144 [1]; T144, 1 h) was 64 µg/mL. For the same sequence, the “MIC after Trypsin treatment” value (MRSA T144 [1]; T144, 1 h) was >128 µg/mL, the “MIC after treatment at 40 °C” value (MRSA T144 [1]; T144, 1 h) was 2 µg/mL and the “MIC after treatment at 60 °C” value (MRSA T144 [1]; T144, 1 h) was 4 µg/mL. For the same sequence, the “MIC after treatment at 80 °C” value (MRSA T144 [1]; T144, 1 h) was 2 µg/mL, the “MIC after treatment at 100 °C” value (MRSA T144 [1]; T144, 1 h) was 4 µg/mL and the “MIC after treatment at pH 2” value (MRSA T144 [1]; T144, 1 h, pH 2) was 4 µg/mL. For the same sequence, the “MIC after treatment at pH 4” value (MRSA T144 [1]; T144, 1 h, pH 4) was 4 µg/mL, the “MIC after treatment at pH 6” value (MRSA T144 [1]; T144, 1 h, pH 6) was 4 µg/mL and the “MIC after treatment at pH 8” value (MRSA T144 [1]; T144, 1 h, pH 8) was 4 µg/mL. For the same sequence, the “MIC after treatment at pH 10” value (MRSA T144 [1]; T144, 1 h, pH 10) was 4 µg/mL, the “MIC after treatment at pH 12” value (MRSA T144 [1]; T144, 1 h, pH 12) was 4 µg/mL and the MIC (MRSA T144 [2]) was 8 µg/mL. It also gave an MIC (MRSA 1530) of 32 µg/mL, an MIC (S. aureus G16 (RIF^R)) of 8 µg/mL and an MIC (E. coli 1F28 (tet(X4))) of 16 µg/mL. For the same sequence, the MIC (E. coli CP131 (mcr-3)) was 2 µg/mL, the MIC (E. coli ATCC 25922) was 8 µg/mL and the MIC (E. coli G6 (blaNDM-5)) was 2 µg/mL. It also gave an MIC [3] of 16 µg/mL, an MIC [4] of 2 µg/mL and an MIC (A. baumannii ATCC 19609) of 8 µg/mL. The MIC (E. coli B3-1 (tet(X4))) was 4 µg/mL, the MIC (E. coli C3 (blaNDM-1)) was 2 µg/mL and the MIC (E. coli G92 (mcr-1)) was 2 µg/mL. For the same sequence, the MIC [5] was 4 µg/mL, the MIC [6] was 16 µg/mL and the MIC [7] was 4 µg/mL. It also gave an MIC (S. aureus ATCC 29213) of 4 µg/mL, an MIC (P. aeruginosa PA14) of 16 µg/mL and an MIC [8] of 8 µg/mL.
